{"source": "patent US20100111901A1", "about": "“TRIAZOLE INHIBITORS OF AROMATASE” (priority 2008, published 2010)", "origin": "cited, not measured here", "key": {"[1]": {"conditions": "in vivo"}, "CYP1A2": {"target": "CYP1A2 (Homo sapiens, UniProt P05177)", "sequence (P05177 whole entry)": "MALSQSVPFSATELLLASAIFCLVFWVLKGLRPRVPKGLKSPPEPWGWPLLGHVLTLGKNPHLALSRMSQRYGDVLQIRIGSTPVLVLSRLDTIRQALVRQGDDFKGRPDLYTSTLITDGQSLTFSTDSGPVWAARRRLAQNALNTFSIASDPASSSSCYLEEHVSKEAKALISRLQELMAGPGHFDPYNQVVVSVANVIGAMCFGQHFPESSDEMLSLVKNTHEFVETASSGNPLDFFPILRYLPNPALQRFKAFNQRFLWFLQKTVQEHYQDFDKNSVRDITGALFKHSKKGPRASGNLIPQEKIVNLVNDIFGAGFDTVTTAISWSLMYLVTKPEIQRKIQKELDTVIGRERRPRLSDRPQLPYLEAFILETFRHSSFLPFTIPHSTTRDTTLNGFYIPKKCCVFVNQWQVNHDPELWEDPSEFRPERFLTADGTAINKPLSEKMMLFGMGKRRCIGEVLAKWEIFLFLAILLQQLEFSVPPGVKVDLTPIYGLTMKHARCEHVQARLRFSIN", "conditions": "strongest in decreasing order of magnitude"}, "CYP2A6": {"target": "CYP2A6 (Homo sapiens, UniProt P11509)", "sequence (P11509 whole entry)": "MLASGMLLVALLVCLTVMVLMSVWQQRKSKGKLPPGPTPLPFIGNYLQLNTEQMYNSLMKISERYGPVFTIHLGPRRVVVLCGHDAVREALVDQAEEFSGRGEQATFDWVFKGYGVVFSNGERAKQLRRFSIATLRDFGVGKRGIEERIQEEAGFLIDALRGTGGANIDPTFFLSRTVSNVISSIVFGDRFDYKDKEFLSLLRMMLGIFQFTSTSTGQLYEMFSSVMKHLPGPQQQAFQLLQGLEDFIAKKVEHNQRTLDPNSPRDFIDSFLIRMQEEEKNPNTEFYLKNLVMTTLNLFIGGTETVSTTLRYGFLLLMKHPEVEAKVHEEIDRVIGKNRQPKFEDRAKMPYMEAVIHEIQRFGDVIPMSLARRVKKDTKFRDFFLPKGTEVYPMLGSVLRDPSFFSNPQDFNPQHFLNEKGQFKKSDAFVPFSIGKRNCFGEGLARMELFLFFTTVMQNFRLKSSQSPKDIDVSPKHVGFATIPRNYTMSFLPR"}, "CYP2D6": {"target": "CYP2D6 (Homo sapiens, UniProt P10635)", "sequence (P10635 whole entry)": "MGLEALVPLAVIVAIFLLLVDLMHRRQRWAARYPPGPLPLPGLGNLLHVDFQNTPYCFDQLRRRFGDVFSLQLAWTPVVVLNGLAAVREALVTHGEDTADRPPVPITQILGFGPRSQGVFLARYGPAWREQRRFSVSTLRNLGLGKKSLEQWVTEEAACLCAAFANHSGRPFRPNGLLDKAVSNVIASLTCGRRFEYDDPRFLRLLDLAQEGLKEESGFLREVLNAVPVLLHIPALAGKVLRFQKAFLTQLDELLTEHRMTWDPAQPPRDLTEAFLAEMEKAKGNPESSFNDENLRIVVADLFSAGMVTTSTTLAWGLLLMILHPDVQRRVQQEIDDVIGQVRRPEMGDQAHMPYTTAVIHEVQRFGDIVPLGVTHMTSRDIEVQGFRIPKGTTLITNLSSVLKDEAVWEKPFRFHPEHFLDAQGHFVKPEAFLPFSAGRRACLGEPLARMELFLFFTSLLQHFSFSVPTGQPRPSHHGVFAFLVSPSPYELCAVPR"}}}
{"smiles": "CC(C)(C#N)c1cc(Cn2cncn2)cc(C(C)(C)C#N)c1", "note": "[Anastrozole, 2-[3-(2-cyano-2-propyl)-5-(1,2,4-triazol-1-ylmethyl)phenyl]-2-methylpropiononitrile]", "values": [{"measurement": "mean terminal elimination half-life", "setting": "[1]", "result": "40 to 50", "unit": "h"}, {"measurement": "inhibition of CYP1A2", "setting": "CYP1A2", "result": "inhibits"}, {"measurement": "effect on CYP2A6", "setting": "CYP2A6", "result": "no effect"}, {"measurement": "effect on CYP2D6", "setting": "CYP2D6", "result": "no effect"}]}
